Test results: patent publication US20210137897A1, “TOPICAL mTOR INHIBITORS FOR CUTANEOUS PROLIFERATIVE AND VASCULAR CONDITIONS” (GEORGETOWN UNIVERSITY, priority 2019, published 2021)

Key:
[1] = tested on: Langerhans cell histiocytosis, multisystem disease; conditions: in combination with a single dose of methylprednisolone; cited from earlier work
[2] = Sirolimus blood levels during topical treatment of the non-LCH patient; type: in vivo, human; conditions: at 1 month; topical rapamycin (1%) ointment to left face
Source text: Topical rapamycin (1%) compounded in ointment was initiated to the left face with the right face serving as a control. Sirolimus blood levels were negative at 1 month.

keloids = assay: Case report: 1% topical rapamycin on keloidal, contracted burn scar; type: in vivo, human; conditions: 1% topical rapamycin one to two times a day on thigh scar
Source text: As an adjuvant treatment, they treated their worst keloidal, contracted scar on their thigh with 1% topical rapamycin one to two times a day.

[3] = tested on: capillary malformation-arteriovenous malformation (CM-AVM) syndrome; assay: Case report: topical 1% rapamycin cream in CM-AVM syndrome; type: in vivo, human; conditions: topical 1% rapamycin cream twice a day to the face
Source text: A person presented with several well demarcated pink to slightly tan patches with perilesional halos/rims of pallor scattered on their body, including one on their face. Many of those birthmarks were present since birth or at least since a very young age. The patient's parent also had similar-appearing birthmarks. The patient was otherwise well. Genetic testing confirmed a pathogenic variant identified in RASA1 gene consistent with capillary malformation-arteriovenous malformation (CM-AVM) syndrome. Per the patient and their parent's interest in a topical treatment, off-label use of topical 1% rapamycin cream was used twice a day to the lesion on the face.

[4] = tested on: venolymphatic malformation; assay: Case report: topical 1% sirolimus cream in venolymphatic malformation; type: in vivo, human
Source text: A person presented with a birthmark on the left thigh, present since birth. […] Clinically, it appeared most consistent with a mixed venolymphatic malformation, possibly with a small capillary component to it. Over the last few years, it began scabbing and occasionally bleeding at the surface. The deeper areas sometimes caused a throbbing pain. A decision was made to start treatment with topical 1% sirolimus cream twice a day. After 1.5 to 2 months treatment, the birthmark started to improve. Before starting topical sirolimus, they had painful episodes (6/10 severity) 2-3× per week that lasted 15-20 minutes. […] Additionally, overall the lesion was much flatter since starting the topical sirolimus. Their quality of life improved now that they were is in much less pain.
Previous reports have shown effectiveness of oral sirolimus in the treatment of venolymphatic malformations; however, to the best of inventor's knowledge, topical treatment has never been reported. This patient's venolymphatic malformation improved both symptomatically and improved in appearance with topical 1% rapamycin treatment. […] Additionally, inventor expects that all superficial or cutaneous vascular malformations and cutaenous vascular conditions would respond to treatment with topical mTOR inhibitor.

[5] = tested on: confluent and reticulated papillomatosis (CARP); assay: Case report: topical 1% rapamycin cream in confluent and reticulated papillomatosis; type: in vivo, human; conditions: 1% rapamycin cream twice a day for 3 months
Source text: FIG. 1A is a photographic image of the chest of a patient afflicted with confluent and reticulated papillomatosis (CARP) before starting 3 months' treatment with topically applied 1% rapamycin (sirolimus).
FIG. 1B is a photographic image of the chest of the patient in FIG. 1A following 3 months' treatment with topically applied 1% rapamycin (sirolimus).
A person was initially diagnosed with CARP in October 2015 when they presented with numerous hyperpigmented, slightly velvety macules with a fine overlying scale coalescing into reticulated and confluent patches on their chest, neck, and upper back. […] They then embarked upon a course of topical 1% rapamycin cream applied to affected areas twice a day for 3 months. […] Pre- and post treatment photographs are presented as FIGS. 1A and 1B, respectively.

[6] = cited from earlier work

Sirolimus blood levels [2]	SMILES	disease response [1] [%]	reactivation [1] [%]	survival [1] [%]	toxicity [1] [%]	tolerability (keloids)	tolerability [3]	duration of pain episode ([4]; after 1-2 months of topical 1% sirolimus, before treatment 15-20 minutes)	treatment time until the birthmark started to improve ([4]; person, topical 1% sirolimus cream twice a day) [months]	local tolerability at the site of application [5]	water solubility [6]
–	COc1cc([C@@H]2c3cc4c(cc3[C@@H](O[C@@H]3O[C@@H]5CO[C@@H](C)O[C@H]5[C@H](O)[C@H]3O)[C@H]3COC(=O)[C@H]23)OCO4)cc(OC)c1O [etoposide]	65	55	83	58	–	–	–	–	–	–
negative	CO[C@H]1C[C@@H]2CC[C@@H](C)[C@@](O)(O2)C(=O)C(=O)N2CCCC[C@H]2C(=O)O[C@H]([C@H](C)C[C@@H]2CC[C@@H](O)[C@H](OC)C2)CC(=O)[C@H](C)/C=C(\C)[C@@H](O)[C@@H](OC)C(=O)[C@H](C)C[C@H](C)/C=C/C=C/C=C/1C [sirolimus, Sirolimus]	–	–	–	–	tolerated the treatment well without any known side effects	tolerated well without side effects	about 10 minutes	1.5 to 2	denied having any itching, burning, or pain	poorly water soluble
–	CC[C@]1(O)C[C@@H]2CN(CCc3c([nH]c4ccccc34)[C@@](C(=O)OC)(c3cc4c(cc3OC)N(C)[C@H]3[C@@](O)(C(=O)OC)[C@H](OC(C)=O)[C@]5(CC)C=CCN6CC[C@]43[C@@H]65)C2)C1 [vinblastine]	58	61	76	47	–	–	–	–	–	–
